Counter-ions that a name gives are not always drawn.
Assays:
KLK1 = KLK1 (Homo sapiens (Human), UniProt P06870); experiment: KLK1 enzymatic inhibition test (Boc-PFR-AMC); type: biochemical; conditions: for inhibition at 10 µM: KLK1 1.6 nM, Boc-PFR-AMC 100 μM, 15 min at 37° C., compound 10 μM; for IC50: KLK1, Boc-PFR-AMC, ni = non-inhibitor
Procedure: The molecules were tested in order to evaluate their possible inhibitory effect on the enzymatic activity of KLK1. […] The results are presented in Table 4 below; all the inhibitors are reversible.

plasmin = plasmin (Homo sapiens (Human), UniProt P00747); experiment: Plasmin enzymatic inhibition test (Boc-QAR-AMC / PAR4 FRET substrate); conditions: for inhibition at 10 µM: read-out: % Inhibition at 10 μM
Sequence of plasmin (P00747 581-810 limits assumed): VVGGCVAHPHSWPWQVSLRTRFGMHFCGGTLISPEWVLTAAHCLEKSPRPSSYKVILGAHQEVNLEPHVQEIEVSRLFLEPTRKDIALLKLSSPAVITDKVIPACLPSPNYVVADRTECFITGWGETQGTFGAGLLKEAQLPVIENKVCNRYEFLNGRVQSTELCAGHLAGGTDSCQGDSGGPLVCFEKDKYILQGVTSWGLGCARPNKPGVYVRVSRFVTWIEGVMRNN
Sequence of plasmin (P00747 97-580 partner limits assumed): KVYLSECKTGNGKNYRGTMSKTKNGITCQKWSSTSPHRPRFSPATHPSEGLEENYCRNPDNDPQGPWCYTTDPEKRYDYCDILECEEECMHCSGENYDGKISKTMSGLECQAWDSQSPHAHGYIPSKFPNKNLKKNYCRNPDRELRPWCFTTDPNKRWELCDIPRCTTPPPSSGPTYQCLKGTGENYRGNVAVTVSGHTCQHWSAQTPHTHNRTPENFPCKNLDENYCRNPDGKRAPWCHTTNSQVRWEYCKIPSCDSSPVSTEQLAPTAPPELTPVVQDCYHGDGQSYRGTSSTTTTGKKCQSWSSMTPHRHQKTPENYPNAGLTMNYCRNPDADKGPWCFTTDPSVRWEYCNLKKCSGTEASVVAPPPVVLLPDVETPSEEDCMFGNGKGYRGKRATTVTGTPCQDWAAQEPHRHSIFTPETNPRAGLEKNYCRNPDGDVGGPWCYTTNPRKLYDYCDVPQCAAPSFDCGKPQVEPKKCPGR

[1] = tested on: primary culture of murine cortical neurons; experiment: Neurocytotoxicity, XTT cell survival test; type: cell-based; conditions: for % cell survival: 48 h
Procedure: FIG. 1: Evaluation of the neurocytotoxicity of the compounds 1 (comparative), 2 and 4 (according to the invention). The percentage cell survival was determined by measuring the absorbance at 485 nm for each concentration compared with the controls treated only with complete medium (positive control) or 20% DMSO (negative control). Each concentration was tested in quadruplicate. The neurons were taken from the stage E16 embryos of Swiss females. The cells are seeded at a density of 50 000 cells/well in precoated sterile transparent 96-well plates. The cells are cultured for 48 h in DMEM medium supplemented with 10% fetal calf serum (FCS), penicillin, streptomycin, N2 and B27, at 37° C. under a humid atmosphere with 5% CO2. The cells are then placed in the presence of the compounds described above (10, 25 or 50 μM) or of the DMSO control, and then incubated for 48 h. The medium is then replaced with 100 μl of XTT (0.3 mg·ml^−1) in order to carry out the cell viability test. […] The activity of the mitochondria is determined by measuring the absorbance at 485 nm. The percentage cell survival is calculated by the ratio of the absorbance in the presence of the inhibitor relative to the control condition (DMSO). The molecule is considered to be cytotoxic when the percentage cell survival is less than 80%.

KLK6 = KLK6 (Homo sapiens (Human), UniProt Q92876); experiment: KLK6 enzymatic inhibition test (fluorogenic/FRET peptide substrates); conditions: for inhibition at 10 µM: read-out: % Inhibition at 10 μM
[2] = tested on: CG4 cell line (rat oligodendrocyte precursor cells), GFP/mCherry; experiment: Cytotoxicity on GFP/mCherry oligodendrocyte line (Hoechst staining); type: cell-based; conditions: 72 h
Procedure: FIGS. 2 and 3: Evaluation of the cytotoxicity of the compounds 2 and 3 on the GFP/-mCherry oligodendrocyte line. The cell survival was evaluated by measuring the fluorescence intensity of the Hoechst staining compared with the basal control (TB). Each concentration was tested in quadruplicate. Statistics: Mann-Whitney test (p value=0.019). […] Legend—TB: basal control, T+: positive control (9-cis-retinoic acid). The line used is a CG4 cell line, said cell line being rat oligodendrocyte precursor cells (OPCs), and doubly transduced with the GFP gene under the control of the CMV promoter and the mCherry marker gene under the control of a promoter specific for differentiated and mature oligodendrocytes. The mCherry marker is expressed only at the differentiated oligodendrocyte stage and thus makes it possible to test compounds capable of inducing OPC differentiation. The cells were also stained with Hoechst in order to evaluate their viability. The cells are cultured in the proliferation medium described by Louis et al. (Louis et al., J Neurosci Res. 1992 January; 31(1):193-204) during their seeding, and then transferred into a differentiation medium (DMEM/F12, B27, N1, biotin, laminin). The cells are treated with various concentrations of inhibitor for 72 h in 96-well plates, then screened by means of an automated inverted microscope. The experimental controls used are a basal control containing only the differentiation medium and a positive control, 9-cis-retinoic acid, which is known for its effect in inducing OPC differentiation (Huang et al., Nature Neuroscience 14, 45-53 (2011)). Firstly, the cytotoxicity of the compounds is evaluated by virtue of the comparison of the intensity of the Hoechst staining for each experimental condition with respect to the basal control.

[3] = plasmin, FRET substrate PAR4, ni = non-inhibitor

Sequence of KLK1 (P06870 25-262): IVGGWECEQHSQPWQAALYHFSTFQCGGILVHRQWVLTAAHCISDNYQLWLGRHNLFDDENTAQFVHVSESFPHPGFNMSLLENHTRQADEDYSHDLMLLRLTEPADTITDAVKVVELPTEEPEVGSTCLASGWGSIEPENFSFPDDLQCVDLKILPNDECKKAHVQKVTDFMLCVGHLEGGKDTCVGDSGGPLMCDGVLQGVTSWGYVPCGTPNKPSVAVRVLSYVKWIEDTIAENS

Structure (SMILES) | inhibition at 10 µM (KLK1) [%] | inhibition at 10 µM (plasmin) [%] | IC50 (plasmin; [3]) | % cell survival ([1]; 10 μM) [%] | % cell survival ([1]; 25 μM) [%] | inhibition at 10 µM (KLK6) [%] | IC50 (KLK1) | other results
COc1ccc2c(O)c(C(=O)Nc3ccc(CN)cc3)ccc2c1 [Compound 5, N-(4-(Aminomethyl)phenyl)-6-methoxy-1-hydroxy-2-naphthamide hydrochloride] | 46.5 | 100 | – | – | – | – | – | –
NCc1ccc(NC(=O)c2cc3ccccc3cc2O)cc1 [Compound 3, N-(4-(Aminomethyl)phenyl)-3-hydroxy-2-naphthamide hydrochloride] | 77 | 81 | – | – | – | – | – | –
Cc1ccc(C(=O)Nc2ccc(CN)cc2)c(O)c1.Cl [Compound 4, N-(4-(Aminomethyl)phenyl)-4-methyl-2-hydroxybenzamide hydrochloride] | 61.7 | 54.3 | ni | > 80 | > 90 | 68.8 | – | Cytotoxicity ([2]; between 2 and 12 μM): does not exhibit any toxicity
CC(C)(C)c1ccc(O)c(C(=O)Nc2ccc(CN)cc2)c1.Cl [Compound 1, N-(4-(Aminomethyl)phenyl)-5-tert-butyl-2-hydroxybenzamide hydrochloride, reference compound] | 32.8 | 39.3 | ni | > 80 | – | 51 | ni | Inhibition type (plasmin; plasmin, Boc-QAR-AMC, competitive/noncompetitive by Dixon method): Competitive; IC50 (plasmin; plasmin, substrate Boc-QAR-AMC): 17.1 µM; Ki (plasmin; plasmin, substrate Boc-QAR-AMC, Dixon method): 14.4 µM; Inhibition type (reversibility) (plasmin; plasmin, dilution method): reversible; Neurocytotoxicity ([1]; 10, 25 and 50 μM): dose-dependent effect; Inhibition type (KLK6; KLK6, Boc-QAR-AMC, competitive/noncompetitive by Dixon method): Competitive; IC50 (KLK6; KLK6, FRET substrate MBP3): 39.8 µM; IC50 (KLK6; KLK6, FRET substrate PAR2): 21.7 µM; IC50 (KLK6; KLK6, substrate Boc-QAR-AMC): 9.06 µM; Ki (KLK6; KLK6, substrate Boc-QAR-AMC, Dixon method): 4.44 µM; Inhibition type (reversibility) (KLK6; KLK6, dilution method): reversible; Concentrations at which toxicity is exhibited ([2]; oligodendrocyte line): above 10 μM
CC(C)c1ccc(C(=O)Nc2ccc(CN)cc2)c(O)c1 [Compound 6, N-(4-(Aminomethyl)phenyl)-4-isopropyl-2-hydroxybenzamide hydrochloride] | 57.7 | 70.2 | – | – | – | 84.7 | – | –
Cl.NCc1ccc(NC(=O)c2ccc3ccccc3c2O)cc1 [Compound 2, N-(4-(Aminomethyl)phenyl)-1-hydroxy-2-naphthamide hydrochloride] | 47.7 | 97.4 | – | > 80 | > 90 | 77.2 | ni | % cell survival ([1]; second statement printed as 25 μM (presumably 50 μM)): > 90%; Cytotoxicity (Hoechst staining relative to basal control) ([2]; all concentrations tested): not cytotoxic

Reference: patent US11541023B2, “Compounds and compositions for the treatment of neurodegenerative and inflammatory diseases” (SORBONNE UNIVERSITE, priority 2018, dated 2023)
